Each block holds one molecule with its values, some of them ahead of it.
Columns and labels:
truncated yPolη = target: T1, truncated yPolη (Saccharomyces cerevisiae, UniProt Q04049); assay: pre-steady-state single-turnover nucleotide incorporation, rapid chemical quench; format: biochemical; details: 5 mM MgCl2, pH 7.5, 23°C
T1 construct: gene RAD30; catalytic core (polymerase domain) 1-513, lacks C-terminal residues 514-632; N-terminal tag MGSSH6SSGLVPRGSH
T1 sequence (Q04049 1-513): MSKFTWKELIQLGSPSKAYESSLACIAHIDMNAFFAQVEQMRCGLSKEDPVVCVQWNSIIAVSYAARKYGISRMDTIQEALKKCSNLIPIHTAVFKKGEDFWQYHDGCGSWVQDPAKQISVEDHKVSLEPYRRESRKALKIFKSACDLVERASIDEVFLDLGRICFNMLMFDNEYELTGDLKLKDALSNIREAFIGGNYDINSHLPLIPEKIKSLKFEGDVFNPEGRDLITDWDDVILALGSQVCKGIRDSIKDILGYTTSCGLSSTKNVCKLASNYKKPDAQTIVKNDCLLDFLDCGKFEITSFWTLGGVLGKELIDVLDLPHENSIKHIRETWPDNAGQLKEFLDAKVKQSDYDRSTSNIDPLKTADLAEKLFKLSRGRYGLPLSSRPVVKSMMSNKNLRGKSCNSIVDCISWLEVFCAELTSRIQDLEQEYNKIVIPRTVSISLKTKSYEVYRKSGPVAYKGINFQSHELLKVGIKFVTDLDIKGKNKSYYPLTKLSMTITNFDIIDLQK

full-length yPolη = target: T2, full-length yPolη (Saccharomyces cerevisiae, UniProt Q04049); assay: as above; format: biochemical; details: 5 mM MgCl2, pH 7.5, 23°C
T2 construct: gene RAD30; full-length, residues 1-632, expressed and purified from yeast
T2 sequence (Q04049 1-632): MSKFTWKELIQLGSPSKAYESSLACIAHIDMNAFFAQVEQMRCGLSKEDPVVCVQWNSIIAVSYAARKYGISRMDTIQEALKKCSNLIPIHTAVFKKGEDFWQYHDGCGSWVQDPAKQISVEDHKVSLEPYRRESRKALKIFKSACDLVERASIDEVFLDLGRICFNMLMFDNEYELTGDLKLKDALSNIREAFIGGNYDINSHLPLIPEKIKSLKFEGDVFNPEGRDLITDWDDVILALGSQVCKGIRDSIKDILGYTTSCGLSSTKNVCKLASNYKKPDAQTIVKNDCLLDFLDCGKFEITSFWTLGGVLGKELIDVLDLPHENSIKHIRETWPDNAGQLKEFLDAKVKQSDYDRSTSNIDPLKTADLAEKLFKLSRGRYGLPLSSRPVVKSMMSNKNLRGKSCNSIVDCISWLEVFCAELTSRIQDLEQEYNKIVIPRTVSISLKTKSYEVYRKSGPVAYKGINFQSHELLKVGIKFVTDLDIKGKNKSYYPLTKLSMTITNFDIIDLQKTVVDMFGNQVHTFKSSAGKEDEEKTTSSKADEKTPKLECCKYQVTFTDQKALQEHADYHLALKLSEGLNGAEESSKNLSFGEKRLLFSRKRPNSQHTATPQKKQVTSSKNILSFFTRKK
From the text: pre-steady-state single-turnover nucleotide incorporation, rapid chemical quench on full-length yPolη

[1] = mismatched dNTP opposite template dA (D-1 21/41-mer DNA)
[2] = correct dNTP opposite template dA (D-1 21/41-mer DNA)

Kd (truncated yPolη; correct dNTP opposite template dT (D-7 21/41-mer DNA)): 17 ± 3 µM
Kd (full-length yPolη; [1]): 156 ± 7 µM
Structure (SMILES): Nc1ncnc2c1ncn2[C@H]1C[C@H](O)[C@@H](COP(=O)(O)OP(=O)(O)OP(=O)(O)O)O1 [dATP]

Kd (truncated yPolη; [2]): 15 ± 2 µM
Kd (full-length yPolη; [2]): 40 ± 10 µM
Structure (SMILES): Cc1cn([C@H]2C[C@H](O)[C@@H](COP(=O)(O)OP(=O)(O)OP(=O)(O)O)O2)c(=O)[nH]c1=O [dTTP]

Kd (truncated yPolη; correct dNTP opposite template dG (D-6 21/41-mer DNA)): 11.2 ± 0.8 µM
Kd (full-length yPolη; [1]): 70 ± 10 µM
Structure (SMILES): Nc1ccn([C@H]2C[C@H](O)[C@@H](COP(=O)(O)OP(=O)(O)OP(=O)(O)O)O2)c(=O)n1 [dCTP]

Kd (truncated yPolη; correct dNTP opposite template dC (D-8 21/41-mer DNA)): 6.8 ± 0.4 µM
Kd (full-length yPolη; [1]): 170 ± 40 µM
Structure (SMILES): Nc1nc2c(ncn2[C@H]2C[C@H](O)[C@@H](COP(=O)(O)OP(=O)(O)OP(=O)(O)O)O2)c(=O)[nH]1 [dGTP]

Reference: article PMC2925389, “Pre-Steady-State Kinetic Analysis of Truncated and Full-Length Saccharomyces cerevisiae DNA Polymerase Eta” (Journal of Nucleic Acids, 2010)
